The results in this text go back to US20180273528A1 (LES LABORATOIRES SERVIER, priority 2015, published 2018).

Where only a bound is given, the exact number is not on record here.

The target in assay [1] is T1, CLK1 (Homo sapiens, UniProt P49759).
T1 construct: full-length human kinases from Carna Biosciences; purchased Carna Biosciences 04-126
The assay is described as follows: Kinase TR-FRET assay, CLK1. The following applies: full-length human kinase, 10 μM ATP. It counts as biochemical. As to the method: Inhibition of the enzymatic activity of human kinases was evaluated in a Time-Resolved Fluorescence Resonance Energy Transfer (TR-FRET) assay in 384-well reaction plates. […] Test compounds of the invention were added in reaction buffer at a range of concentrations from 0.1 nM to 30 μM. Following addition of EDTA (Sigma E7889, 10 mM) to stop the reaction, Europium-labelled mouse monoclonal antibody recognizing phospho-Thr232 in MBP (Perkin Elmer TRF0201, 1 nM) was added.

Assay [2] has as its target T2, CDK9 (Homo sapiens, UniProt P50750).
T2 construct: full-length human kinases from Carna Biosciences; purchased Carna Biosciences 04-110
The assay is described as follows: Kinase TR-FRET assay, CDK9. It counts as biochemical. The following applies: full-length human kinase, 10 μM ATP. The method, boiled down: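 Full-length human CDK9 (0.9 ng/μl) incubated 100 min at room temperature with 10 μM ATP, 100 nM ULight-MBP peptide and compound (0.1 nM–30 μM) in 50 mM HEPES pH 7.4, 1 mM EGTA, 10 mM MgCl2, 2 mM DTT, 0.01% Tween20. Stopped with 10 mM EDTA, then 1 nM Eu-anti-phospho-Thr232 MBP antibody added for 1 h. TR-FRET read at 665/620 nm with 340 nm excitation.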

Assay [3] addresses T3, DYRK1A (Homo sapiens, UniProt Q13627). The assay is described as follows: Kinase TR-FRET assay, DYRK1A. It counts as biochemical. More on the design: full-length, wild-type human DYRK1A (NM_001396) with an HA tag; expressed in transfected cells; host or cells: human U2-OS osteosarcoma cells, transient transfection of a pcDNA3.1 plasmid. The following applies: full-length human kinase, 10 μM ATP. The method in brief: (§1)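 Compounds tested at 0.1 nM to 30 μM in reaction buffer; reaction stopped with 10 mM EDTA. Phosphorylated MBP detected with 1 nM Europium-labelled anti-phospho-Thr232 antibody by TR-FRET.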

The target in assay [4] is T4, His-TEV-DYRK1A Kinase domain (aa127-485) (Homo sapiens, UniProt Q13627).
T4 construct: His-TEV-DYRK1A Kinase domain (aa127-485); His tag (N); TEV protease cleavage site (N)
As to the kind of experiment: Kinase ADP assay (ADP Hunter), DYRK1A kinase domain. Format: biochemical. Particulars: 20 μM ATP. The method, boiled down:
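Readout is ADP Hunter fluorescence at 590 nm, developed 20 min at 30 °C after the kinase step. That step ran 10 min at 30 °C in Hepes pH 7.4 (10 mM MgCl2, 1 mM EGTA, 0.02% Tween20) containing 20 μM ATP, 40 μM peptide and 20 nM enzyme plus compound.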

Assay [5] concerns the target T5, DYRK1B (Homo sapiens, UniProt Q9Y463).
T5 construct: full-length human kinases from Carna Biosciences; purchased Carna Biosciences 04-131
The assay is described as follows: Kinase TR-FRET assay, DYRK1B. Format: biochemical. Particulars: full-length human kinase, 10 μM ATP. The method, boiled down:
as §1

The target of assay [6] is T3, DYRK1A. The assay is described as follows: Cellular DYRK1 autophosphorylation assay in U2-OS cells. The following applies: U2-OS cells transfected with HA-tagged human DYRK1A, 5 hours exposure; read-out: IC50 (μM) P-Ser520-Dyrk1A -Cell assay. More on the design: full-length, wild-type human DYRK1A (NM_001396) with an HA tag; expressed in transfected cells; host or cells: human U2-OS osteosarcoma cells, transient transfection of a pcDNA3.1 plasmid. It counts as cell-based. The method, boiled down:
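IC50 derived from dose-response curves of phospho-Ser520-DYRK1A (blots normalised to total DYRK1A), quantified by either immunoblotting with chemiluminescence or Mesoscale electrochemiluminescent ELISA. Compounds applied to U2-OS cells across several concentrations for 5 hours.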

T2 sequence (P50750 whole entry): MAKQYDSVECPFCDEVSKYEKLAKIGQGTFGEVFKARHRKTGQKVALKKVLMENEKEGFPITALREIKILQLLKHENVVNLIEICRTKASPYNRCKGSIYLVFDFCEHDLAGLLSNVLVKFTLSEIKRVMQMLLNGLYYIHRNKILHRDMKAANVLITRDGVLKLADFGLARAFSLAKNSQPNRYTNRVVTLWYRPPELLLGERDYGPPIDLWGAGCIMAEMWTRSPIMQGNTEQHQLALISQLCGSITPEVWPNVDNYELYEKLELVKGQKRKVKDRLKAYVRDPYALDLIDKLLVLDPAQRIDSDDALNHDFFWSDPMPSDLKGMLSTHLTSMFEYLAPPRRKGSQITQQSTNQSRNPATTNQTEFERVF
T2 sequence (O60563 whole entry partner): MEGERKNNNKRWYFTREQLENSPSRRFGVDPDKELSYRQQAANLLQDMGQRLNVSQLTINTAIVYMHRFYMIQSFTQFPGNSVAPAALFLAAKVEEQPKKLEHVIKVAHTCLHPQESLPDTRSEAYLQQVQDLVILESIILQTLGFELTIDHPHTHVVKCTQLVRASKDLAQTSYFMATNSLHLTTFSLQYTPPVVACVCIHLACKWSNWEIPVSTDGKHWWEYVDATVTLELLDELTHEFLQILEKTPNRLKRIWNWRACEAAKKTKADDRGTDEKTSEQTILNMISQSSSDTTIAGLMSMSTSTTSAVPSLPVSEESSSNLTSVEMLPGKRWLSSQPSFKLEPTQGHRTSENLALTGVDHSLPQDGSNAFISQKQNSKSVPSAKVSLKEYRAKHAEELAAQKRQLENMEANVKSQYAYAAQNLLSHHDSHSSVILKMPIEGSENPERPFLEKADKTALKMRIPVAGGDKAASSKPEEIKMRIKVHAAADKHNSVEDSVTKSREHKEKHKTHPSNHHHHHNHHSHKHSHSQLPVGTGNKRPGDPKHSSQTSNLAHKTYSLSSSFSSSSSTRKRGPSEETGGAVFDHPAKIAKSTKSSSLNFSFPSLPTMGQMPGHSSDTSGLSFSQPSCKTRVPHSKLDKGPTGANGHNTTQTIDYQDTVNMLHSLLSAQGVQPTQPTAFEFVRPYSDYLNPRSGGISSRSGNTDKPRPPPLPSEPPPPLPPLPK
T1 sequence (P49759 1-526 isoform P49759-3): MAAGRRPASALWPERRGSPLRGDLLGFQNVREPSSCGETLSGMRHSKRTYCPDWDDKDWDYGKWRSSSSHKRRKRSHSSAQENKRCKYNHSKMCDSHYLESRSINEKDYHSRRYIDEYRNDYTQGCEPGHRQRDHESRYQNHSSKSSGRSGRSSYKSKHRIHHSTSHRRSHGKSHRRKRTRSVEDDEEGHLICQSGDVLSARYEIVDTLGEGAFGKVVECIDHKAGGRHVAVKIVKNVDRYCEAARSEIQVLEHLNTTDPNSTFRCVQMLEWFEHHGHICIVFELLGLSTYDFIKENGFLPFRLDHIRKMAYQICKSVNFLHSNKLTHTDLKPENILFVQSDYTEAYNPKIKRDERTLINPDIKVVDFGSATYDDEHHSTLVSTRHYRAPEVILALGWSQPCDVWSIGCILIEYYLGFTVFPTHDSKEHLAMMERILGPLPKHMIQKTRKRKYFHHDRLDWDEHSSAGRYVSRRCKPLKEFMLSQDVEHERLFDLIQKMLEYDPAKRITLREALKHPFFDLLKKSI
T5 sequence (Q9Y463 whole entry): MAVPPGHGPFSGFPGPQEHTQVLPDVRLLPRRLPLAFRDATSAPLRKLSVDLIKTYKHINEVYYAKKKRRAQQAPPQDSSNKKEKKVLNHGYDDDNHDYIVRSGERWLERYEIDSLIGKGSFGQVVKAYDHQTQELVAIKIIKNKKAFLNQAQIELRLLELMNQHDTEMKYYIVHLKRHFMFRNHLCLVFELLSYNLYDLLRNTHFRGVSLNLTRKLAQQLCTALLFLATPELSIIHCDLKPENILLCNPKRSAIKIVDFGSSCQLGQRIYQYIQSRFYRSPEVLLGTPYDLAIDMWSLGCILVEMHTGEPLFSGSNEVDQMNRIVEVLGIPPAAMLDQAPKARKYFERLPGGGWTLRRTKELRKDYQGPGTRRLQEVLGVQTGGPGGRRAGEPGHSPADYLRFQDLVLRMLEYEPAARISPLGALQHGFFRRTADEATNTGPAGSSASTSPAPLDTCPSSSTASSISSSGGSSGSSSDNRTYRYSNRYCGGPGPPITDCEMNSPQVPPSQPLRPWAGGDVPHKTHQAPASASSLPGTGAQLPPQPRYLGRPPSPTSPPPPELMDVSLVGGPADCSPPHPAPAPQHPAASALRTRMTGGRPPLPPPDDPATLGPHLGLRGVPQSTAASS

For the compound `Cc1nc2ccc(-c3cc(N)nc(N)c3)nc2n1C[C@H](C)Oc1ccccn1` (single isomer, unassigned) [Example 174], the IC50 in assay [1] was 0.083 µM; in assay [2], above 3 µM; in assay [3], 0.016 µM; in assay [4], 0.074 µM; in assay [5], 0.013 µM.
Turning to `Cc1nc2ccc(-c3cc(N)nc(N)c3)nc2n1CCc1ccc2c(c1)OCO2` [Example 73, 4-(3-[2-(1,3-benzodioxol-5-yl)ethyl]-2-methyl-3H-imidazo[4,5-b]pyridin-5-yl)pyridine-2,6-diamine], the IC50 is 0.019 µM in assay [1]; 4.66 µM in assay [2]; 0.004 µM in assay [3]; 0.009 µM in assay [4]; 0.065 µM in assay [6]; 0.008 µM in assay [5].
Take `Cc1nc2ccc(-c3cc(N)nc(N)c3)nc2n1C[C@H](C)Oc1cccc(Br)n1` [Example 180]: the IC50 in assay [1] was determined as 0.016 µM; in assay [2], 0.467 µM; in assay [3] it was 0.005 µM; in assay [4], 0.013 µM; in assay [6], 0.044 µM; in assay [5] it was 0.01 µM.
Take `CCCCn1c(CCC)nc2ccc(-c3cc(N)nc(N)c3)nc21` [Example 161, 4-(3-butyl-2-propyl-3H-imidazo[4,5-b]pyridin-5-yl)pyridine-2,6-diamine]: the IC50 in assay [1] was 0.218 µM; in assay [2] it was above 10 µM; in assay [4], 0.02 µM; in assay [6] it was 0.143 µM; in assay [5] it was 0.005 µM.
Turning to `C=CCCn1c(C)nc2ccc(-c3cc(N)nc(N)c3)nc21` [Example 14, 4-[3-(but-3-en-1-yl)-2-methyl-3H-imidazo[4,5-b]pyridin-5-yl]pyridine-2,6-diamine], the IC50 in assay [1] worked out at 0.016 µM; in assay [2], 1.95 µM; in assay [3] it was 0.002 µM; in assay [4], 0.008 µM; in assay [6], 0.05 µM; in assay [5] it was 0.001 µM.
`Cc1nc2ccc(-c3cc(N)nc(N)c3)nc2n1C1CCOCC1` [Example 49, 4-[2-methyl-3-(tetrahydro-2H-pyran-4-yl)-3H-imidazo[4,5-b]pyridin-5-yl]pyridine-2,6-diamine]: the IC50 in assay [1] is 0.017 µM; in assay [2], 0.979 µM; in assay [3], 0.003 µM; in assay [4], 0.011 µM; in assay [6], 0.13 µM; in assay [5] it was 0.017 µM.
With `Cc1nc2ccc(-c3cc(N)nc(N)c3)nc2n1C[C@H]1C[C@@H]1c1ccccc1` (single isomer, unassigned) [Example 109], the IC50 in assay [1] was 0.025 µM; in assay [2], above 3 µM; in assay [3], 0.01 µM; in assay [4], 0.03 µM; in assay [6] it was 0.22 µM; in assay [5], 0.015 µM.
On to `CCCCCn1c(C)nc2ccc(-c3cc(N)nc(N)c3)nc21` [Example 65, 4-(2-methyl-3-pentyl-3H-imidazo[4,5-b]pyridin-5-yl)pyridine-2,6-diamine], for which the IC50 in assay [1] is 0.018 µM; in assay [2], above 10 µM; in assay [3] it was 0.001 µM; in assay [4], 0.006 µM; in assay [6], 0.022 µM; in assay [5], 0.005 µM.
Regarding `CCCCn1c(CC)nc2ccc(-c3cc(N)nc(N)c3)nc21` [Example 157, 4-(3-butyl-2-ethyl-3H-imidazo[4,5-b]pyridin-5-yl)pyridine-2,6-diamine], the IC50 in assay [1] is 0.058 µM; in assay [2], above 10 µM; in assay [3], 0.011 µM; in assay [4], 0.021 µM; in assay [6], 0.153 µM; in assay [5], 0.003 µM.
With `Cc1nc2ccc(-c3cc(N)nc(N)c3)nc2n1CCC(C)C` [Example 75, 4-[2-methyl-3-(3-methylbutyl)-3H-imidazo[4,5-b]pyridin-5-yl]pyridine-2,6-diamine], the concentration for half-maximal inhibition (IC50) in assay [1] was found to be 0.019 µM; in assay [2] it was 0.843 µM; in assay [3] it was 0.003 µM; in assay [4], 0.012 µM; in assay [6], 0.035 µM; in assay [5], 0.006 µM.
As for `COc1ccccc1OCCn1c(C)nc2ccc(-c3cc(N)nc(N)c3)nc21` [Example 206, 4-{3-[2-(2-methoxyphenoxy)ethyl]-2-methyl-3H-imidazo[4,5-b]pyridin-5-yl}pyridine-2,6-diamine], the IC50 is 0.028 µM in assay [1]; above 3 µM in assay [2]; 0.005 µM in assay [3]; 0.017 µM in assay [4]; 0.094 µM in assay [6]; 0.007 µM in assay [5].
On to `Cc1nc2ccc(-c3cc(N)nc(N)c3)nc2n1CC1Cc2ccccc21` (single isomer, unassigned) [Example 112, 4-[3-(bicyclo[4.2.0]octa-1,3,5-trien-7-ylmethyl)-2-methyl-3H-imidazo[4,5-b]pyridin-5-yl]pyridine-2,6-diamine], for which the IC50 is 0.025 µM in assay [1]; 2.62 µM in assay [2]; 0.006 µM in assay [3]; 0.005 µM in assay [4]; 0.09 µM in assay [6]; 0.014 µM in assay [5].
As for `Cc1nc2ccc(-c3cc(N)nc(N)c3)nc2n1CC1CC1(Cl)Cl` (stereo not shown) [Example 74, 4-{3-[(2,2-dichlorocyclopropyl)methyl]-2-methyl-3H-imidazo[4,5-b]pyridin-5-yl}pyridine-2,6-diamine], the IC50 in assay [1] was 0.021 µM; in assay [2], 0.476 µM; in assay [3], 0.006 µM; in assay [4], 0.014 µM; in assay [6], 0.092 µM; in assay [5], 0.01 µM.
For the compound `Cc1nc2ccc(-c3cc(N)nc(N)c3)nc2n1CCOc1c(F)cccc1F` [Example 212, 4-{3-[2-(2,6-difluorophenoxy)ethyl]-2-methyl-3H-imidazo[4,5-b]pyridin-5-yl}pyridine-2,6-diamine], the IC50 in assay [1] was 0.017 µM; in assay [2], above 10 µM; in assay [3], 0.003 µM; in assay [4], 0.007 µM; in assay [6] it was 0.083 µM; in assay [5] it was 0.04 µM.
Consider `N#Cc1nc2ccc(-c3cc(N)nc(N)c3)nc2n1CCCC(F)(F)F` [Example 226, 5-(2,6-diaminopyridin-4-yl)-3-(4,4,4-trifluorobutyl)-3H-imidazo[4,5-b]pyridine-2-carbonitrile], for which the IC50 in assay [1] was 0.023 µM; in assay [2], 0.713 µM; in assay [3], 0.005 µM; in assay [4], 0.013 µM; in assay [6], 0.148 µM; in assay [5], 0.01 µM.
Turning to `Cc1nc2ccc(-c3cc(N)nc(N)c3)nc2n1CCOc1cccc(Br)n1` [Example 168, 4-(3-{2-[(6-bromopyridin-2-yl)oxy]ethyl}-2-methyl-3H-imidazo[4,5-b]pyridin-5-yl)pyridine-2,6-diamine], the IC50 in assay [1] turned out to be 0.015 µM; in assay [3], 0.002 µM; in assay [4] it was 0.011 µM; in assay [6] it was 0.032 µM; in assay [5] it was 0.006 µM.
On the same counts, the results for `Cc1nc2ccc(-c3cc(N)nc(N)c3)nc2n1CC1Cc2ccccc2C1` [Example 114, 4-[3-(2,3-dihydro-1H-inden-2-ylmethyl)-2-methyl-3H-imidazo[4,5-b]pyridin-5-yl]pyridine-2,6-diamine] are 0.019 µM, 0.005 µM, 0.005 µM, 0.039 µM and 0.009 µM.
On the same counts, the results for `Cc1nc2ccc(-c3cc(N)nc(N)c3)nc2n1CCOc1cccc(Cl)n1` [Example 165, 4-(3-{2-[(6-chloropyridin-2-yl)oxy]ethyl}-2-methyl-3H-imidazo[4,5-b]pyridin-5-yl)pyridine-2,6-diamine] are 0.015 µM, 0.003 µM, 0.009 µM, 0.026 µM and 0.005 µM.
